Active and inactive are the calls of the source.
Columns and labels:
HEL [1] = assay: Induction of apoptosis in HEL cells assessed as downregulation of PARP expression at 0.1 to 0.4 uM incubated for 48 hrs by Western blot analysis; format: functional, cell-based; conditions: Homo sapiens, dose 0.1-0.4 µM
HEL [2] = assay: Induction of apoptosis in HEL cells assessed as downregulation of caspase-3 expression at 0.1 to 0.4 uM incubated for 48 hrs by Western blot analysis; format: functional, cell-based; conditions: Homo sapiens, dose 0.1-0.4 µM
HEL [3] = assay: Induction of apoptosis in HEL cells assessed as downregulation of caspase-9 expression at 0.1 to 0.4 uM incubated for 48 hrs by Western blot analysis; format: functional, cell-based; conditions: Homo sapiens, dose 0.1-0.4 µM
HEL [4] = assay: Induction of apoptosis in HEL cells assessed as upregulation of cleaved PARP expression at 0.1 to 0.4 uM incubated for 48 hrs by Western blot analysis; format: functional, cell-based; conditions: Homo sapiens, dose 0.1-0.4 µM
HEL [5] = assay: Induction of apoptosis in HEL cells assessed as upregulation of cleaved caspase-3 expression at 0.1 to 0.4 uM incubated for 48 hrs by Western blot analysis; format: functional, cell-based; conditions: Homo sapiens, dose 0.1-0.4 µM
HEL [6] = assay: Induction of apoptosis in HEL cells assessed as upregulation of cleaved caspase-9 expression at 0.1 to 0.4 uM incubated for 48 hrs by Western blot analysis; format: functional, cell-based; conditions: Homo sapiens, dose 0.1-0.4 µM
[7] = target: T1, Friend leukemia integration 1 transcription factor (Homo sapiens) (UniProt Q01543); assay: Inhibition of Fli-1 in HEL cells by Western blot analysis; format: cell-based; conditions: dose 0.1-0.4 µM
T1 sequence (whole entry): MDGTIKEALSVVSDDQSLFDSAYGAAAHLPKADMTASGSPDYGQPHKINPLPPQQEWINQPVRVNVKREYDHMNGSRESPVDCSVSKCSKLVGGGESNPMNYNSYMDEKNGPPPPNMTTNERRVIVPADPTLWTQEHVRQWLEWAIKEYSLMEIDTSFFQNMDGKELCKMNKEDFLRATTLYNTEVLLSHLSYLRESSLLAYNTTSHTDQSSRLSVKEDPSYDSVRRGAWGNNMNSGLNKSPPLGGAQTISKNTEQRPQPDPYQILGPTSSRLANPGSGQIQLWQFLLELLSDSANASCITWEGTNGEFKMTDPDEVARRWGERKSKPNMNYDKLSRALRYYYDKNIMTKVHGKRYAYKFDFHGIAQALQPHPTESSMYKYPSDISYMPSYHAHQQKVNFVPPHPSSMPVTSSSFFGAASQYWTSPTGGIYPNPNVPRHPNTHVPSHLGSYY

[8] = target: T1, Friend leukemia integration 1 transcription factor (Homo sapiens); assay: Binding affinity to Fli-1 in HEL cells assessed as increase in thermal stability at 0.4 uM preincubated for 1 hr followed by heating at 40 to 60 degreeC by CETSA assay; format: cell-based

COc1cc(OC)c2c(c1)O[C@@]1(c3ccc(OCCCCCN4CCN(C)CC4)cc3)[C@H](c3ccccc3)C[C@@H](O)[C@@]21O (racemic; form 2)
active: Activity (HEL [1]) | Activity (HEL [2]) | Activity (HEL [3]) | Activity (HEL [4]) | Activity (HEL [5]) | Activity (HEL [6]) | inhibition [7] Dose-Dependent Effect | Activity [8]

Source: ChEMBL document CHEMBL5357031, “Design and Synthesis of Cytotoxic Water-Soluble Rocaglaol Derivatives against HEL Cells by Inhibiting Fli-1” (J Nat Prod, 2024)
